Tests used:
[1] = Compound was tested in vitro for its ability to inhibit serine protease trypsin using benzoyl-Phe-Val-Arg-p-nitroanilide as substrate
[2] = Compound was tested in vitro for its ability to inhibit serine protease chymotrypsin using suc-Ala-Ala-Pro-Phe-p-nitroanilide as substrate

Ki [1]: 23 µM | Ki [2]: > 200 µM
Structure (SMILES): Cc1cc(OCCCNC(=N)N)cc(OS(=O)(=O)c2ccccc2Cl)c1 [2-Chloro-benzenesulfonic acid 3-(3-guanidino-propoxy)-5-methyl-phenyl ester]
